# Measurements from patent publication US20230106238A1, “PHARMACEUTICAL COMPOSITION FOR PREVENTING OR TREATING NK/T-CELLLYMPHOMA OR NK-CELL LEUKEMIA, COMPRISING PHOSPHODIESTERASE TYPE 5 INHIBITOR” (SAMSUNG LIFE PUBLIC WELFARE FOUNDATION, priority 2020, published 2023).
# Assays:
# Assay type in all cases: cell-based
# [1] = tested on: Epstein-Barr virus (EBV) reactivation in 1A2 cell line (lymphoma); test: EBV reactivation by romidepsin in 1A2 cell line (BZLF1/BRLF1 mRNA); settings: romidepsin 1 or 10 nM, 72 hours
# Experimental: (§1) EBV-positive cell lines other than SNK6 and NK92MI were collected to identify EBV reactivity by romidepsin and the effect of sildenafil. As EBV-positive cell lines, the Daudi cell line (ATCC, CCL-213) and Raji cell line (ATCC, CCL-86), which are Burkitt's lymphoma cells, and the 1A2 cell line (ATCC, CRL-8119), which is a lymphoma cell, were treated with 1 or 10 nM of romidepsin for 72 hours, and mRNA expression of BZLF1 and BRLF1, genes whose expression is increased in EBV reactivation, was identified. The results for BZLF1 mRNA expression of the Daudi cell line are shown in FIG. 3A, and the results for BRLF1 mRNA expression are shown in FIG. 3B. In addition, the results for BZLF1 mRNA expression of the Raji cell line are shown in FIG. 3C, and the results for BRLF1 mRNA expression are shown in FIG. 3D. In addition, the results for BZLF1 mRNA expression of the 1A2 cell line are shown in FIG. 3E, and the results for BRLF1 mRNA expression are shown in FIG. 3F.
# [2] = tested on: Epstein-Barr virus (EBV) reactivation in Daudi cell line (Burkitt's lymphoma); test: EBV reactivation by romidepsin in Daudi cell line (BZLF1/BRLF1 mRNA, EBV copy number); settings: sildenafil 100 nM + romidepsin 10 nM simultaneously, 72 hours, versus romidepsin alone
# Experimental: as §1
# When sildenafil and romidepsin were simultaneously treated in the Daudi cell line, which is a cell line showing EBV reactivation by romidepsin identified in Example 3.1, an experiment was performed to determine whether EBV reactivation by romidepsin was inhibited. In the Daudi cell line, a group treated with 10 nM of romidepsin and 100 nM of sildenafil separately for 72 hours and a group treated therewith simultaneously were used as experimental groups, and a group treated with DMSO only was used as a control group. In order to measure the EBV copy number secreted out of the cell by EBV reactivation, by extracting DNA from the medium and measuring the Ct value by real-time PCR and comparing the same with the reference EBV number, the EBV copy number was measured and shown in FIG. 4A. In the same manner as in Example 3.1, BZLF1 mRNA expression was measured and shown in FIG. 4B, and BRLF1 mRNA was measured and shown in FIG. 4C.
# SNK6 cells = test: Cell growth/viability by counting live cells through trypan blue staining, SNK6; settings: sildenafil 100 nM + romidepsin 10 nM, 72 hours; versus romidepsin alone
# Experimental: (§2) The inhibition of EBV reactivation by sildenafil (100 nM, 72 hours), which was shown by treatment with 10 nM of romidepsin in SNK6 and NK92MI cell lines for 72 hours, was measured through EBV copy number, BALF5, BZLF1, and BRLF1 expression. In addition, cell growth was measured by counting live cells through trypan blue staining. BALF5 is a gene with the function of generating viral DNA produced through EBV reactivation. DNA was extracted from the medium using QIAamp DNA mini kit (Qiagen) and real-time quantitative PCR was performed to measure […]. […] The results of measuring the number of EBV copies in the SNK6 cells identified as described above are shown in FIG. 5A, the expression of BZLF1 mRNA is shown in FIG. 5B, the expression of BRLF1 mRNA is shown in FIG. 5C, and the survival rate of tumor cells is shown in FIG. 5D. In addition, the expression of BRLF5 mRNA in NK92MI cells is shown in FIG. 6A, the expression of BZLF1 mRNA is shown in FIG. 6B, the expression of BRLF1 mRNA is shown in FIG. 6C, and the survival rate of tumor cells is shown in FIG. 6D.
# NK92MI cells = test: Cell growth/viability by counting live cells through trypan blue staining, NK92MI; settings: sildenafil 100 nM + romidepsin 10 nM, 72 hours; versus romidepsin alone
# Experimental: as §2
# [3] = tested on: Epstein-Barr virus (EBV) reactivation in NK-cell leukemia cell line NK92MI; test: EBV reactivation by romidepsin in NK92MI cells (real-time PCR of BZLF1/BRLF1/BALF5); settings: 72 hours
# Experimental: (§3) The NK/T-cell lymphoma cell line SNK6 (source; Seoul National University) and the NK-cell leukemia cell line NK92MI (source; Seoul National University) were treated with the HDAC inhibitor, romidepsin 10 nM, and the PDE5 inhibitor, sildenafil 100 nM, for 24, 48, and 72 hours. After treatment, cells were harvested […]. Then, RNA was extracted using TRIzol reagent (Ambion, Life technologies), cDNA synthesis was performed using Omniscript RT kit (Qiagen), and the expression of BZLF1, an mRNA expressed during EBV reactivation, was identified through real-time PCR. The group treated with DMSO only was used as a control group.
# (§4) BZLF1 mRNA expression was measured in the same manner as in Example 1, with a group treated with sildenafil alone and a group treated with 10 nM of romidepsin simultaneously at a concentration of sildenafil of 10, 100 or 1000 nM in SNK6 and NK92MI cells as experimental groups. The treatment time was 72 hours.
# as §2
# [4] = tested on: Epstein-Barr virus (EBV) reactivation in NK/T-cell lymphoma cell line SNK6; test: EBV reactivation by romidepsin in SNK6 cells (real-time PCR of BZLF1/BRLF1 mRNA, EBV copy number)
# Experimental: as §3, §4, §2
# BZLF1 and BRLF1 mRNA expressions were identified and measured by qPCR in the same manner as in Example 3.1 that EBV reactivation, which was shown by treatment of 10 nM of romidepsin in the SNK6 cell line, was inhibited by the PDE5 inhibitors of vardenafil, udenafil or tadalafil. In this connection, vardenafil was treated with 100 nM for 72 hours, udenafil was treated with 100 nM for 48 hours, and tadalafil was treated with 1000 nM for 24 hours. The expression of BZLF1 mRNA in the vardenafil-administered group is shown in FIG. 7A, and the expression of BRLF1 mRNA is shown in FIG. 7B. In addition, the expression of BZLF1 mRNA in the udenafil-administered experimental group is shown in FIG. 7C, and the expression of BRLF1 mRNA is shown in FIG. 7D. In addition, the expression of BZLF1 mRNA in the tadalafil-administered experimental group is shown in FIG. 7E, and the expression of BRLF1 mRNA is shown in FIG. 7F.
# [5] = NK92MI cell line, sildenafil 100 nM + romidepsin 10 nM, versus romidepsin alone
# [6] = SNK6 cell line, sildenafil 100 nM + romidepsin 10 nM, 72 hours, versus romidepsin alone
# [7] = SNK6 cell line, udenafil 100 nM for 48 hours with romidepsin 10 nM
smiles,measurement,setting,value
C/C=C1\NC(=O)[C@H]2CSSCC/C=C/[C@H](CC(=O)N[C@H](C(C)C)C(=O)N2)OC(=O)[C@H](C(C)C)NC1=O [romidepsin],expression of BRLF1 mRNA,[1],increased
same,expression of BZLF1 mRNA,[1],only the expression of BRLF1 was increased
CCCc1nn(C)c2c(=O)[nH]c(-c3cc(S(=O)(=O)N4CCN(C)CC4)ccc3OCC)nc12 [sildenafil],EBV copy number (DNA from the medium),[2],no significant difference
same,expression of BRLF1 mRNA,[2],no significant difference
same,expression of BZLF1 mRNA,[2],no significant difference
same,viability of the SNK6 cell line (trypan blue),SNK6 cells,decreased
same,viability of the NK92MI cell line (trypan blue),NK92MI cells,decreased
same,expression of BALF5,[3]; [5],decreased
same,expression of BRLF1 mRNA,[3]; [5],decreased
same,expression of BZLF1 mRNA,"[3]; NK92MI cells, sildenafil 100 nM together with romidepsin 10 nM, compared to romidepsin alone",significantly decreased
same,inhibition of EBV reactivation by romidepsin (BZLF1 mRNA expression),"[3]; NK92MI cells, sildenafil 10, 100 or 1000 nM in combination with romidepsin 10 nM",the effect of inhibiting the reactivation of EBV by romidepsin was observed
same,EBV copy number,[4]; [6],decreased
same,expression of BRLF1 mRNA,[4]; [6],decreased
same,expression of BZLF1 mRNA,"[4]; SNK6 cells, sildenafil 100 nM together with romidepsin 10 nM, 72 hours, compared to romidepsin alone",significantly decreased
same,inhibition of EBV reactivation by romidepsin (BZLF1 mRNA expression),"[4]; SNK6 cells, sildenafil 10, 100 or 1000 nM in combination with romidepsin 10 nM, 72 hours",the effect of inhibiting the reactivation of EBV by romidepsin was observed
CCCOc1ccc(S(=O)(=O)NCCC2CCCN2C)cc1-c1nc2c(CCC)nn(C)c2c(=O)[nH]1 (centres unmarked) [udenafil],BRLF1 mRNA expression,[4]; [7],decreased
same,BZLF1 mRNA expression,[4]; [7],decreased
